Converted amounts (≈) assume the structure as drawn.
Legend:
HIV-1 RT = biological target: T1, HIV-1 RT (Human immunodeficiency virus type 1 group M subtype B, UniProt P04585); assay: HIV-1 reverse transcriptase assay; assay type: biochemical
T1 construct: HSV-1 DNA Polymerase and HIV-1 Reverse Transcriptase Assay
Description: (§1) The reaction mixture (40 μl) for the HSV-1 DNA polymerase and HIV-1 RT assays contained 4 μl Premix (200 mM Tris.HCl, pH 7.5; 2 mM DTT; 30 mM MgCl2), 4 μl BSA (5 mg/ml), 1.6 μl activated calf thymus DNA (1.25 mg/ml), 0.8 μl dCTP (5 mM), 0.8 μl dTTP (5 mM), 0.8 μl dGTP (5 mM), 2 μl radiolabeled [^3H]dATP (1 mCi/ml) (3.3 μM), 18 μl H2O and 4 μl tenofovir-DP at different concentrations (i.e. 200, 20, 2, 0.2 μM). The reaction was started by the addition of 4 μl recombinant HSV-1 DNA polymerase (kindly provided by M. W. Wathen (Pfizer, Kalamazoo, Mich.)) or recombinant HIV-1 RT (in 20 mM Tris.HCl, pH 8.0; 1 mM DTT; 0.1 mM EDTA; 0.2 M NaCl; 40% glycerol), and the reaction mixture was incubated for 60 min (HSV-1 DNA polymerase) or 30 min (HIV-1 RT) at 37° C. Then, 1 ml ice-cold 5% TCA in 0.02 M Na4P2O7.10H2O was added to terminate the polymerisation reaction, after which the acid-insoluble precipitate (radiolabeled DNA) was captured onto Whatman glass fiber filters type GF/C (GE Healthcare UK Limited, Buckinghamshire, UK) and further washed with 5% TCA and ethanol to remove free radiolabeled dATP. Radioactivity was determined in a Perkin Elmer Tri-Carb 2810 TR liquid scintillation counter.

HSV-1 DNA polymerase = biological target: T2, HSV-1 DNA polymerase (Human herpesvirus 1, UniProt P04293); assay: HSV-1 DNA polymerase assay; assay type: biochemical; settings: activated calf thymus DNA primer/template; [2,8-3H]dATP competing substrate
T2 construct: gift of M. W. Wathen (Pfizer, Kalamazoo, Mich.)
Description: as §1

HSV-2 = assay: Herpes virus infection of primary monocyte/macrophage (M/M) cell cultures; assay type: cell-based
Description: Human peripheral blood mononuclear cells (PBMCs) were obtained from the blood of healthy seronegative donors by Ficoll-Hypaque density gradient centrifugation. […] Monocyte/macrophage (M/M) cells were separated by adherence onto plastic. […] African green monkey fibroblastoid kidney (Vero) cells highly sensitive to the cytopathic effect of HSV-2 were grown in RPMI medium supplemented with 10% heat inactivated FCS and were used in infectious virus titration assays.
Macrophage cultures were then infected with HSV-2 (100 CCID50) in the presence of the test compounds. After 2 hrs virus adsorption, the cultures were extensively washed to remove any residual virus particles. Fresh culture medium and compounds, at the indicated concentrations, were then added to the cultures. […] Appropriate positive (infected but not treated M/M) and mock-infected negative (uninfected and untreated M/M) controls were run for each experiment as well. All assays were performed in triplicate. […] Therefore, the potential inhibitory effect of the compounds on the replication of HSV-2 was evaluated 6 days after infection. The amount of infectious virus in the supernatants was determined by a classical limited dilution assay on Vero cell cultures. The titers of produced virus were calculated according to the Reed and Muench method and expressed as 50% tissue culture infective dose per ml (TCID50/ml).
The inhibition capacity was expressed in % and calculated considering as value 100 being the virus production in virus-infected untreated cultures.

HSV-1 and HSV-2 = assay: HSV cytopathic effect (CPE) reduction assay, laboratory strains, HEL cell monolayers and PHKs; assay type: cell-based, herpes simplex virus; settings: laboratory HSV strains; HEL cell monolayers and PHKs; read-out: EC50, inhibition of virus-induced cytopathicity
HSV-2 (G) = assay: Organotypic epithelial raft cultures infected with HSV-2; assay type: cell-based; settings: for activity against HSV replication in rafts compared with tenofovir: HSV-1 and HSV-2, FIGS. 3A and 3B; for concentration resulting in complete protection of the epithelial tissue: HSV-2, data not shown
Description: (§2) For the preparation of epidermal equivalents, a collagen matrix solution was made with collagen mixed on ice with 10-fold concentrated HAM's F12 media, 10-fold reconstitution buffer and Swiss 3T3 J2 fibroblasts. One milliliter of the collagen matrix solution was poured into the wells of 24-well microtiter plates. After gel equilibration with 1 ml of growth medium overnight at 37° C., 2.5×10^5 PHK cells were seeded on the top of the gels and maintained submerged for 24-48 hours. The collagen rafts were raised and placed onto stainless-steel grids at the interface between air and liquid culture medium. The growth medium was a mixture of ⅓ HAM F12 and ⅔ Dulbecco's modified Eagle's medium, with the same supplements as used for the Keratinocyte-SFM. Epithelial cells were allowed to stratify, the medium being replaced every 2-3 days. For the evaluation of the antiviral effects of the compounds in the raft system, two series of rafts were run in parallel, one for histological examination and the other one for quantification of viral production by a plaque reduction assay. Rafts were infected with 5,000 PFU of HSV-1 (KOS) or […] strains after 10 days post-lifting and then the medium was replaced by medium containing different dilutions of the compounds. The growth medium containing the different concentrations of the compounds was changed two days later and 3 days later (after 15 days of differentiation), one series of rafts was fixed in 10% buffered formalin, embedded in paraffin and stained with hematoxylin and eosin for histological evaluation. Another series of rafts was used to quantify virus production. For that purpose, each raft was frozen in 3 ml phosphate buffer saline (PBS) and thawed to release the virus from the infected epithelium. Supernatants were clarified by centrifugation at 1,800 rpm and titrated by a plaque assay in HEL cell cultures. Virus production in each raft was then calculated. Two rafts were used for each drug concentration to determine the effects of the compounds on virus yield.

HSV-1 (KOS) = assay: Organotypic epithelial raft cultures infected with HSV-1; assay type: cell-based; settings: reference HSV-1 laboratory strain
Description: as §2

[1] = tested on: organotypic raft cultures of keratinocytes; assay: Toxic effects in organotypic epithelial raft cultures; assay type: cell-based; settings: highest concentration, 50 μg/ml
Description: as §2

HSV-1 (Kos strain) = assay: In vivo antiviral activity in HSV-1-infected NMRI athymic nude mice
Description: (§3) Adult NMRI athymic nude mice (weighing ˜20 g) were scarified on the lumbosacral area over a surface of about 1 cm^2. Mice were inoculated with 5×10^3 PFU of HSV-1 (Kos strain) or 5×10^2 of HSV-2 (G strain) in 50 μL per mouse. […] In each experiment, a group of animals treated with a placebo formulation that was the same as the test formulation without drug was included as a negative control. […] The day of virus inoculation was always considered as day 0. All animal procedures were approved by the K.U. Leuven Animal Care Committee. Development of lesions and mortality were recorded over a one month period. Animals were euthanized when more than 30% loss in body weight or development of paralysis occurred. Survival rates were estimated according to the Kaplan-Meir method and were compared using the log-rank test (Mantel-Cox) test (GraphPad Prism).

HSV-2 (G strain) = assay: In vivo antiviral activity in HSV-2-infected NMRI athymic nude mice; settings: for protection against viral-induced morbidity and mortality: 1% in DMSO (FIG. 5B)
Description: as §3

[2] = tested on: HSV-1 and HSV-2 clinical isolates; assay: organism not typed; assay type: cell-based, herpes simplex virus; settings: for antiherpetic activity against thymidine kinase-deficient strains compared with wild-type: clinical isolates, HEL
HSV-2 strain G (HSV-2G) = assay: Human ex vivo tonsillar tissue, HSV DNA release by real-time PCR; assay type: cell-based; settings: 33 μg/ml; tissues from two donors; data not shown
Description: For each experimental condition 16 tissue blocks were immersed in 500 μl of a HSV-2 (strain G) suspension for 2 hours at 37° C., washed three times with PBS and then placed on the gelfoam rafts. Tenofovir was added during the infection and replenished at each culture medium change. Herpes simplex viral replication was evaluated by the release of viral DNA into the culture medium as measured by quantitative real-time PCR (17). HIV-1 replication was evaluated by the release of p24 capsid antigen using a bead-based assay (18).

T2 sequence (P04293 whole entry): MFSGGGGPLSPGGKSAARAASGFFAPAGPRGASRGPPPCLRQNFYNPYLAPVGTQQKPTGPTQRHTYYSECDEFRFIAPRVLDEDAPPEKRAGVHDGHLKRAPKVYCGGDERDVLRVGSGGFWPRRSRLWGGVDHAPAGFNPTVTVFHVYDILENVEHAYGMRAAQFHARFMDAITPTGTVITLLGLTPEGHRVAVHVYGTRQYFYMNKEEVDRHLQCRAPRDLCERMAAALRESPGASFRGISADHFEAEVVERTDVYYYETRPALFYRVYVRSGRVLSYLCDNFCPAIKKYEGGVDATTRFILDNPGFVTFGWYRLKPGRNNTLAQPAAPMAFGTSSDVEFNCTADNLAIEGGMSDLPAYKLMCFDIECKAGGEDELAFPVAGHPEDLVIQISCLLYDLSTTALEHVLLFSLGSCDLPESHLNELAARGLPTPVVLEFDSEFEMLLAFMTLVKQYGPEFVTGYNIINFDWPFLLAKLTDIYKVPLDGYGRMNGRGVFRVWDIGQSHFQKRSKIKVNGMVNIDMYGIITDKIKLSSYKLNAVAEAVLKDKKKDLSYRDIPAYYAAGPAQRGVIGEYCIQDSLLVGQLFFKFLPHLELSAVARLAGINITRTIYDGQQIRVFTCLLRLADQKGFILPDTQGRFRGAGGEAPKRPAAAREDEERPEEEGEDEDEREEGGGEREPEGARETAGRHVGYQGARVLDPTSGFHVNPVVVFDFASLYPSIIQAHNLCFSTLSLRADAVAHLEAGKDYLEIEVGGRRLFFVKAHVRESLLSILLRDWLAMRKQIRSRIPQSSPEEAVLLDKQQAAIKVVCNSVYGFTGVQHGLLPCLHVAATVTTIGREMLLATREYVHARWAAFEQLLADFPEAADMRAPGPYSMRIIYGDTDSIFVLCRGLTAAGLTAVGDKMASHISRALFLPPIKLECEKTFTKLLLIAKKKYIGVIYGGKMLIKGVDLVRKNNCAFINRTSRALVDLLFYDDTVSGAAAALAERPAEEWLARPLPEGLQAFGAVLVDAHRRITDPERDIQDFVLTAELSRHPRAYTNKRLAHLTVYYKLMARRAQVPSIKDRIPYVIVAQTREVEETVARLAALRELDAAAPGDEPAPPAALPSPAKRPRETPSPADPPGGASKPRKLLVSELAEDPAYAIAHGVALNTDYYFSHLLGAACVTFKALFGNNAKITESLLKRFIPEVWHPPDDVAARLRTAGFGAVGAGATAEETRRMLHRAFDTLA

SMILES: C[C@H](Cn1cnc2c(N)ncnc21)OCP(=O)(O)OP(=O)(O)OP(=O)(O)O [Tenofovir-DP, (R)-(1-(6-amino-9H-purin-9-yl)propan-2-yloxy)methylphosphonic diphosphoric anhydride]
- IC50 (HIV-1 RT): 4300 nM
- IC50 (HSV-1 DNA polymerase): 1300 nM

SMILES: Nc1nc2c(ncn2COCCO)c(=O)[nH]1 [acyclovir, 9-(2-hydroxyethoxymethyl)guanine]
- virus released in the supernatants and visible cytopathicity (HSV-2; concentrations equal to, or higher than 0.008 μg/ml): full suppression of virus released in the supernatants and no visible cytopathicity

SMILES: Nc1ncnc2c1ncn2CCOCP(=O)(O)O [adefovir, 9-[2-(phosphonylmethoxyethyl)adenine]]
- EC50 (HSV-1 and HSV-2): 3.6 to 13 µg/mL (≈ 13.2 to 47.6 µM)
- HSV titer in supernatants (HSV-2; 0.4 μg/ml): 5.4×10^3 TCID50/ml
- visible CPE (HSV-2; 0.4 μg/ml): 45%
- HSV titer in supernatants (HSV-2; 1 μg/ml): 8.5×10^2 TCID50/ml
- visible CPE (HSV-2; 1 μg/ml): 5%
- viral particles in the supernatants and visible CPE (HSV-2; drug concentrations between 500 and 5 μg/ml): neither viral particles in the supernatants nor visible CPE were found
- activity against HSV replication in rafts compared with tenofovir (HSV-2 (G)): more active against HSV replication than tenofovir
- concentration resulting in complete protection of the epithelial tissue (HSV-2 (G)): ≥ 2 µg/mL
- concentration giving complete protection from virus-induced cytopathic effect (HSV-1 (KOS)): 2 µg/mL
- toxic effects (increase in number of dead cells or alteration of differentiation) [1]: No toxic effects
- survival (HSV-1 (Kos strain); 1% in DMSO): 80%
- skin lesions in mice that died (HSV-1 (Kos strain); 1% in DMSO formulation): died without developing skin lesions
- survival (HSV-1 (Kos strain); 1% in gel, data not shown): 100%
- protection against viral-induced morbidity and mortality (HSV-2 (G strain)): 80%
- appearance of lesions and subsequent death (HSV-2 (G strain); formulated in the gel at 1%): significant delay in the appearance of lesions and subsequent death

SMILES: O=c1[nH]c(=O)n([C@H]2C[C@H](O)[C@@H](CO)O2)cc1/C=C/Br [brivudin, RE)-5-(2-bromovinyl)-1(-D-2′-deoxyribofuranos-1-yl-uracil]
- antiherpetic activity against thymidine kinase-deficient strains compared with wild-type [2]: lost their antiherpetic activity

SMILES: Nc1ccn(C[C@@H](CO)OCP(=O)(O)O)c(=O)n1 [cidofovir, (S)-1-(3-hydroxy-2-phosphonylmethoxypropyl)cytosine]
- EC50 (HSV-1 and HSV-2): 0.63 to 4.4 µg/mL (≈ 2.26 to 15.8 µM)
- EC50 ([2]; Fibroblast, read-out: mean EC50 values (range over isolate groups)): 0.35 to 0.67 µg/mL (≈ 1.25 to 2.4 µM)
- activity against HSV replication in rafts compared with tenofovir (HSV-2 (G)): more active against HSV replication than tenofovir
- concentration resulting in complete protection of the epithelial tissue (HSV-2 (G)): 0.2 µg/mL
- concentration giving complete protection from virus-induced cytopathic effect (HSV-1 (KOS)): ≥ 0.5 µg/mL
- toxic effects (increase in number of dead cells or alteration of differentiation) [1]: No toxic effects
- protection against virus-induced morbidity and mortality (HSV-1 (Kos strain); either the DMSO or the gel formulation): completely protected
- protection against viral-induced morbidity and mortality (HSV-2 (G strain)): 100%
- protection against HSV-2-induced morbidity and mortality (HSV-2 (G strain); formulated in gel): 80%

SMILES: Nc1nc2c(ncn2COC(CO)CO)c(=O)[nH]1 [ganciclovir, 9-(1,3-dihydroxy-2-propoxymethyl)guanine]
- antiherpetic activity against thymidine kinase-deficient strains compared with wild-type [2]: lost their antiherpetic activity

SMILES: Nc1ccn([C@@H]2CS[C@H](CO)O2)c(=O)n1 [lamivudine]
- effect on HSV-2G replication compared to untreated donor-matched tissues (HSV-2 strain G (HSV-2G)): no effect

SMILES: Nc1nc2c(ncn2CCC(CO)CO)c(=O)[nH]1 [penciclovir, 9-(4-hydroxy-3-hydroxymethylbut-1-yl)guanine]
- antiherpetic activity against thymidine kinase-deficient strains compared with wild-type [2]: lost their antiherpetic activity

From patent US20130216590A1, “TOPICAL ANTIVIRAL FORMULATIONS FOR PREVENTION OF TRANSMISSION OF HSV-2” (priority 2010, published 2013)
